Peptide text beside a SMILES is read from it.
System: HLA-DPB1*05:01-positive TF-1 cells
Assay: 51Cr releasing assay with target cells pretreated with granzyme-inhibitor
Assay type: cell-based, human
Conditions: target cells pretreated with 100 μM for 2 hours; p<0.05; FIG. 4F
Protocol: To confirm whether the cytotoxic activity of the WT1332-TCR-transduced CD4^+ T-cells was dependent on the granzyme B/perforin pathway, HLA-DPB1*05:01-positive TF-1 cells pretreated with 100 μM of a granzyme-inhibitor, Ac-IETD-Cho, were used as target cells. The HLA-DPB1*05:01-positive TF-1 cells were pretreated with 100 μM of Ac-IETD-Cho or DMSO (control) for 2 hours, then labeled with ^51Cr, and incubated with WT1332-TCR-transduced CD4^+ T-cells, and ^51Cr releasing assay was performed.

Structure (SMILES): CC[C@H](C)[C@H](NC(C)=O)C(=O)N[C@@H](CCC(=O)O)C(=O)N[C@H](C(=O)N[C@H](C=O)CC(=O)O)[C@@H](C)O [Ac-IETD-Cho] (Ac-IETD-aldehyde)
- cytotoxic activity of WT1332-TCR-transduced CD4+ T-cells on pretreated target cells compared with DMSO: markedly lower
